Like-named read-outs stand apart in the source and are kept apart here. *1 amine or outer side, *2 acyl side, *3 side chain or, on linkers, in order; H or OH if unused. Where a SMILES comes first, the peptide text is derived from it. Bridges are numbered along the chain shown (N, C = ends). [ ]: non-standard residue; d: D form. The star is where a group is joined. X2 = O=C(CCOCC(COCCC(=O)NCCOCCOCCOCCOC[C@H]1OC[C@H](Nc2cncc(C(F)(F)F)n2)[C@@H](O)[C@H]1O)NCC(=O)*)NCCOCCOCCOCCOC[C@H]1OC[C@H](Nc2cncc(C(F)(F)F)n2)[C@@H](O)[C@H]1O; X1 = O=C([C@@H]1C[C@H](N[*:3])CN1[*:1])[*:2]
Columns and labels:
ASGPR = target: T1, ASGPR (Homo sapiens, UniProt P07306); assay: Affinity to ASGPR by surface plasmon resonance (SPR)
T1 sequence (P07306 1-291): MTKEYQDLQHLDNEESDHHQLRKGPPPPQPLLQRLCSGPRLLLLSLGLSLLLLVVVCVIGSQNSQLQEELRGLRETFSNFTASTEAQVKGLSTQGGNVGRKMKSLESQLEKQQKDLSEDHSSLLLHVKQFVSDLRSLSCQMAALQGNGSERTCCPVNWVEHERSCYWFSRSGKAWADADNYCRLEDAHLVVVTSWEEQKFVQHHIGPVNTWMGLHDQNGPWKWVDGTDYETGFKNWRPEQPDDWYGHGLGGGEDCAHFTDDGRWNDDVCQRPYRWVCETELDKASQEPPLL

[1] = target: T2, ASGPR receptor on the cell surface (HepG2 cells) (Homo sapiens, UniProt P07306); assay: Ternary complex formation assay (flow cytometry, HepG2); assay type: cell-based
T2 construct: host or cells: HepG2
T2 sequence (P07306 1-291): T1 sequence (P07306 1-291)
T2 sequence (P07307 1-311 partner): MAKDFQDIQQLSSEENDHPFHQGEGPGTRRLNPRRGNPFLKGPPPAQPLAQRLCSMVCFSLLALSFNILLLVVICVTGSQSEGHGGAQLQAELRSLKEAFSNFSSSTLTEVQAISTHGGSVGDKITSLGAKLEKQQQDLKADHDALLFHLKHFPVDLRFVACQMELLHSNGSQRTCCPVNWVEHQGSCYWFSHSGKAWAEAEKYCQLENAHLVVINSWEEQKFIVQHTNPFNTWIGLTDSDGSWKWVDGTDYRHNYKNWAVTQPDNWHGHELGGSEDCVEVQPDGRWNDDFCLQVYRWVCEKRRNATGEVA
Method in brief: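 HepG2 cells (1×10^5/well) incubated 1 h at 4 °C with 100 nM AF488-labeled anti-human IgG plus serial IgG-based degrader, or 100 nM AF488 rabbit anti-DNP plus serial DNP-based degrader. After washing, cell-associated AF488 MFI read by flow cytometry; peak MFI marks optimal degrader concentration for ternary complex.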

HepG2 cells = assay: Cellular uptake assay of AF488-labeled antibody (HepG2); assay type: cell-based
Method in brief: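 Ternary-complex uptake via ASGPR was imaged after fixation: the read-out is AF488-positive HepG2 cells divided by total DAPI nuclei. Degrader dilutions (IgG- or DNP-based, 0.1% DMSO final) were co-incubated 6 h at 37° C. with 100 nM of the corresponding fluorescent antibody.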

IgG = assay: Affinity to IgG by surface plasmon resonance (SPR); assay type: binding
Procedure: Immobilization levels ranging from 1000-1300 resonance units (RU) are obtained. The running buffer is 10 mM HEPES, pH 7.4, 400 mM NaCl, 0.005% P20, […].

[2] = TCF EC50, HepG2 cells, ternary complex formation
[3] = HepG2 cells, read-out: Uptake EC50
[4] = HepG2 cells, ternary complex formation, read-out: TCF EC50
[5] = HepG2 cells, 100 nM AF488-labeled antibody, 37° C. for 6 hours, class symbols, read-out: Uptake Assay EC50
[6] = Biacore 8K, 25° C., IgG on CM5 chip, read-out: IgG SPR Binding Kd

CC(C)C[C@@H]1NC(=O)[C@H](Cc2c[nH]cn2)NC(=O)[C@H](Cc2c[nH]c3ccccc23)NC(=O)[C@H](C)NC(=O)[C@@H]2CSSC[C@H](NC(=O)[C@H](Cc3c[nH]c4ccccc34)NC(=O)[C@H](C(C)C)NC(=O)[C@H](CC(C)C)NC(=O)[C@H](CCC(=O)N(C)C)NC(=O)CNC1=O)C(=O)N[C@@H]([C@@H](C)O)C(=O)N1CCC[C@@H]1C(=O)N1C[C@@H](NC(=O)CNC(COCCC(=O)NCCOCCOCCOCCOC[C@H]3OC[C@H](Nc4cncc(C(F)(F)F)n4)[C@@H](O)[C@H]3O)COCCC(=O)NCCOCCOCCOCCOC[C@H]3OC[C@H](Nc4cncc(C(F)(F)F)n4)[C@@H](O)[C@H]3O)C[C@H]1C(=O)N[C@@H](CC(N)=O)C(=O)N2 [Compound 78] (cyclo(AWHLGE(NMe2)LVWCT[dP][X1](X2)NC); disulfide 10-15)
< 0.1 µM: Kd (ASGPR) | EC50 [1, 2] | EC50 (HepG2 cells; [3]) | Kd (IgG; SPR, read-out: IgG KD)

CC(C)C[C@@H]1NC(=O)[C@H](Cc2cnc[nH]2)NC(=O)[C@H](Cc2c[nH]c3ccccc23)NC(=O)[C@H](C)NC(=O)[C@@H]2CSSC[C@H](NC(=O)[C@H](Cc3c[nH]c4ccccc34)NC(=O)[C@H](C(C)C)NC(=O)[C@H](CC(C)C)NC(=O)[C@H](CCC(=O)O)NC(=O)CNC1=O)C(=O)N[C@@H]([C@@H](C)O)C(=O)N1CCC[C@@H]1C(=O)N1C[C@@H](NC(=O)COc3ccc(CC(=O)NC[C@H]4OC[C@H](Nc5cncc(C(F)(F)F)n5)[C@@H](O)[C@H]4O)cc3)C[C@H]1C(=O)N[C@@H](CC(=O)O)C(=O)N2 [Compound 61]
< 0.1 µM: Kd (ASGPR) | EC50 [1, 4] | EC50 (HepG2 cells; [3]) | Kd (IgG; SPR, read-out: IgG KD)

CC(C)C[C@@H]1NC(=O)[C@H](Cc2c[nH]cn2)NC(=O)[C@H](Cc2c[nH]c3ccccc23)NC(=O)[C@H](C)NC(=O)[C@@H]2CSSC[C@H](NC(=O)[C@H](Cc3c[nH]c4ccccc34)NC(=O)[C@H](C(C)C)NC(=O)[C@H](CC(C)C)NC(=O)[C@H](CCC(=O)O)NC(=O)CNC1=O)C(=O)N[C@@H]([C@@H](C)O)C(=O)N1CCC[C@@H]1C(=O)N1C[C@@H](NC(=O)CCOCCNC(=O)CCCc3cn(CCCCCC(=O)NC(COCCC(=O)NCCOCCOCCOCCOC[C@@]45CO[C@@H](O4)[C@H](Nc4nc(Cl)ns4)[C@@H](O)[C@H]5O)COCCC(=O)NCCOCCOCCOCCOC[C@@]45CO[C@@H](O4)[C@H](Nc4nc(Cl)ns4)[C@@H](O)[C@H]5O)nn3)C[C@H]1C(=O)N[C@@H](CC(=O)O)C(=O)N2 [Compound 9]
< 0.1 µM: Kd (ASGPR) | EC50 [1] | EC50 (HepG2 cells; [5]) | Kd (IgG; [6])

CC(C)C[C@@H]1NC(=O)[C@H](Cc2c[nH]cn2)NC(=O)[C@H](Cc2c[nH]c3ccccc23)NC(=O)[C@H](C)NC(=O)[C@@H](NC(=O)[C@H](CC(=O)O)NCCOCCOCCOCCOCCNC(=O)CCCc2cn(CCCCCC(=O)NC(COCCC(=O)NCCOCCOCCOCCOC[C@H]3OC[C@H](Nc4nccc(C(F)(F)F)n4)[C@@H](O)[C@H]3O)COCCC(=O)NCCOCCOCCOCCOC[C@H]3OC[C@H](Nc4nccc(C(F)(F)F)n4)[C@@H](O)[C@H]3O)nn2)CSSC[C@@H](C(=O)N[C@H](C(N)=O)[C@@H](C)O)NC(=O)[C@H](Cc2c[nH]c3ccccc23)NC(=O)[C@H](C(C)C)NC(=O)[C@H](CC(C)C)NC(=O)[C@H](CCC(=O)O)NC(=O)CNC1=O [Compound 10]
< 0.1 µM: Kd (ASGPR) | EC50 [1] | EC50 (HepG2 cells; read-out: Uptake Assay EC50) | Kd (IgG; read-out: IgG SPR Binding Kd)

CC(C)C[C@@H]1NC(=O)[C@H](Cc2cnc[nH]2)NC(=O)[C@H](Cc2c[nH]c3ccccc23)NC(=O)[C@H](C)NC(=O)[C@@H]2CSSC[C@H](NC(=O)[C@H](Cc3c[nH]c4ccccc34)NC(=O)[C@H](C(C)C)NC(=O)[C@H](CC(C)C)NC(=O)[C@H](CCC(=O)O)NC(=O)CNC1=O)C(=O)N[C@@H]([C@@H](C)O)C(=O)N1CCC[C@@H]1C(=O)N1C[C@@H](NC(=O)CC(=O)NC[C@H]3OC[C@H](Nc4cncc(C(F)(F)F)n4)[C@@H](O)[C@H]3O)C[C@H]1C(=O)N[C@@H](CC(=O)O)C(=O)N2 [Compound 62]
< 0.1 µM: Kd (ASGPR) | EC50 [1, 4] | EC50 (HepG2 cells; [3]) | Kd (IgG; SPR, read-out: IgG KD)

CC(C)C[C@@H]1NC(=O)[C@H](Cc2c[nH]cn2)NC(=O)[C@H](Cc2c[nH]c3ccccc23)NC(=O)[C@H](C)NC(=O)[C@@H]2CSSC[C@H](NC(=O)[C@H](Cc3c[nH]c4ccccc34)NC(=O)[C@H](C(C)C)NC(=O)[C@H](CC(C)C)NC(=O)[C@H](CCC(=O)O)NC(=O)CNC1=O)C(=O)N[C@@H]([C@@H](C)O)C(=O)N1CCC[C@@H]1C(=O)N1C[C@@H](NC(=O)CCOCCOCCOCCOCCNC(=O)CCCc3cn(CCCCCC(=O)NC(COCCC(=O)NCCOCCOCCOCCOC[C@H]4OC[C@H](Nc5nccc(C(F)(F)F)n5)[C@@H](O)[C@H]4O)COCCC(=O)NCCOCCOCCOCCOC[C@H]4OC[C@H](Nc5nccc(C(F)(F)F)n5)[C@@H](O)[C@H]4O)nn3)C[C@H]1C(=O)N[C@@H](CC(=O)O)C(=O)N2 [Compound 16]
< 0.1 µM: Kd (ASGPR) | Kd (ASGPR; read-out: ASGPR KD) | EC50 [1] | EC50 ([1]; read-out: Ternary Complex EC50) | EC50 (HepG2 cells; [5]) | EC50 (HepG2 cells; [3]) | Kd (IgG; [6]) | Kd (IgG; SPR, read-out: IgG KD)

CC(C)C[C@@H]1NC(=O)[C@H](Cc2c[nH]cn2)NC(=O)[C@H](Cc2c[nH]c3ccccc23)NC(=O)[C@H](C)NC(=O)[C@@H]2CSSC[C@H](NC(=O)[C@H](Cc3c[nH]c4ccccc34)NC(=O)[C@H](C(C)C)NC(=O)[C@H](CC(C)C)NC(=O)[C@H](CCC(=O)O)NC(=O)CNC1=O)C(=O)N[C@@H]([C@@H](C)O)C(=O)N1CCC[C@@H]1C(=O)N1C[C@@H](NC(=O)c3ccc(N4CCC(CN5CCN(C[C@H]6OC[C@H](Nc7cncc(C(F)(F)F)n7)[C@@H](O)[C@H]6O)CC5)CC4)cc3)C[C@H]1C(=O)N[C@@H](CC(=O)O)C(=O)N2 [Compound 68]
< 0.1 µM: Kd (ASGPR) | EC50 [1] | EC50 (HepG2 cells; [3]) | Kd (IgG; SPR, read-out: IgG KD)

CC(C)C[C@@H]1NC(=O)[C@H](Cc2c[nH]cn2)NC(=O)[C@H](Cc2c[nH]c3ccccc23)NC(=O)[C@H](C)NC(=O)[C@@H]2CSSC[C@H](NC(=O)[C@H](Cc3c[nH]c4ccccc34)NC(=O)[C@H](C(C)C)NC(=O)[C@H](CC(C)C)NC(=O)[C@H](CCC(=O)O)NC(=O)CNC1=O)C(=O)N[C@@H]([C@@H](C)O)C(=O)N1CCC[C@@H]1C(=O)N1C[C@@H](NC(=O)CCCc3cn(CCCCCC(=O)NC(COCCC(=O)NCCOCCOCCOCCOC[C@H]4OC[C@H](Nc5nccc(C(F)(F)F)n5)[C@@H](O)[C@H]4O)COCCC(=O)NCCOCCOCCOCCOC[C@H]4OC[C@H](Nc5nccc(C(F)(F)F)n5)[C@@H](O)[C@H]4O)nn3)C[C@H]1C(=O)N[C@@H](CC(=O)O)C(=O)N2 [Compound 53]
< 0.1 µM: Kd (ASGPR) | EC50 [1] | EC50 ([1]; read-out: Ternary Complex EC50) | EC50 (HepG2 cells; [5]) | EC50 (HepG2 cells; [3]) | Kd (IgG; [6]) | Kd (IgG; SPR, read-out: IgG KD)

CC(C)C[C@@H]1NC(=O)[C@H](Cc2cnc[nH]2)NC(=O)[C@H](Cc2c[nH]c3ccccc23)NC(=O)[C@H](C)NC(=O)[C@@H]2CSSC[C@H](NC(=O)[C@H](Cc3c[nH]c4ccccc34)NC(=O)[C@H](C(C)C)NC(=O)[C@H](CC(C)C)NC(=O)[C@H](CCC(=O)N(C)C)NC(=O)CNC1=O)C(=O)N[C@@H]([C@@H](C)O)C(=O)N1CCC[C@@H]1C(=O)N1C[C@@H](NC(=O)CNC(COCCC(=O)NCCOCCOCCOCCOC[C@H]3OC[C@H](Nc4cncc(C(F)(F)F)n4)[C@@H](O)[C@H]3O)COCCC(=O)NCCOCCOCCOCCOC[C@H]3OC[C@H](Nc4cncc(C(F)(F)F)n4)[C@@H](O)[C@H]3O)C[C@H]1C(=O)N[C@@H](C)C(=O)N2 [Compound 77]
< 0.1 µM: Kd (ASGPR) | EC50 [1, 2] | EC50 (HepG2 cells; [3]) | Kd (IgG; SPR, read-out: IgG KD)

CC(C)C[C@@H]1NC(=O)[C@H](Cc2c[nH]cn2)NC(=O)[C@H](Cc2c[nH]c3ccccc23)NC(=O)[C@H](C)NC(=O)[C@@H]2CSSC[C@H](NC(=O)[C@H](Cc3c[nH]c4ccccc34)NC(=O)[C@H](C(C)C)NC(=O)[C@H](CC(C)C)NC(=O)[C@H](CCC(=O)N(C)C)NC(=O)CNC1=O)C(=O)N[C@@H]([C@@H](C)O)C(=O)N1CCC[C@@H]1C(=O)N1C[C@@H](NC(=O)CNC(COCCC(=O)NCCOCCOCCOCCOC[C@H]3OC[C@H](Nc4cncc(C(F)(F)F)n4)[C@@H](O)[C@H]3O)COCCC(=O)NCCOCCOCCOCCOC[C@H]3OC[C@H](Nc4cncc(C(F)(F)F)n4)[C@@H](O)[C@H]3O)C[C@H]1C(=O)N[C@@H](CC(=O)O)C(=O)N2 [Compound 75]
< 0.1 µM: Kd (ASGPR) | EC50 [1] | EC50 (HepG2 cells; [3]) | Kd (IgG; SPR, read-out: IgG KD)

Source: patent US12091402B2 (Avilar Therapeutics, Inc., priority 2021, dated 2024)
